Experimental data from ChEMBL document CHEMBL5465560, “Selectivity Literature for EUbOPEN Chemogenomic Library” (2024).

Legend:
[1] = target: Serine/threonine-protein kinase PAK 4 (Homo sapiens, UniProt O96013); experiment: Selectivity interaction (Kinase panel (DSF assay)) EUB0001559a PAK4
[2] = target: Cyclin-dependent kinase 18 (Homo sapiens) (UniProt Q07002); experiment: Selectivity interaction (KinomeScan (DiscoverX)) EUB0000695a CDK18; settings: at 100 nM
[3] = target: Sigma non-opioid intracellular receptor 1 (Homo sapiens) (UniProt Q99720); experiment: Selectivity interaction (GPCR panel (PDSP screen)) EUB0001079a SIGMAR1; settings: at 10 µM
Sigma non-opioid intracellular receptor 1 (Homo sapiens), sequence (Q99720 whole entry): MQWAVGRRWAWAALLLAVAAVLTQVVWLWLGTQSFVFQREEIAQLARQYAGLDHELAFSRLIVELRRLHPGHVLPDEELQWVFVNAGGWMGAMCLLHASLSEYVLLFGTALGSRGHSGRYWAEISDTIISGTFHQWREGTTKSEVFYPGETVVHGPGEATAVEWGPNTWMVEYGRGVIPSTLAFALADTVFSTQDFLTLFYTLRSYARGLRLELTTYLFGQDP

[4] = target: Serine/threonine-protein kinase 25 (Homo sapiens) (UniProt O00506); experiment: Selectivity interaction (KinomeScan (DiscoverX)) EUB0000666a STK25; settings: at 10 µM
Serine/threonine-protein kinase 25 (Homo sapiens), sequence (O00506 whole entry, looked up): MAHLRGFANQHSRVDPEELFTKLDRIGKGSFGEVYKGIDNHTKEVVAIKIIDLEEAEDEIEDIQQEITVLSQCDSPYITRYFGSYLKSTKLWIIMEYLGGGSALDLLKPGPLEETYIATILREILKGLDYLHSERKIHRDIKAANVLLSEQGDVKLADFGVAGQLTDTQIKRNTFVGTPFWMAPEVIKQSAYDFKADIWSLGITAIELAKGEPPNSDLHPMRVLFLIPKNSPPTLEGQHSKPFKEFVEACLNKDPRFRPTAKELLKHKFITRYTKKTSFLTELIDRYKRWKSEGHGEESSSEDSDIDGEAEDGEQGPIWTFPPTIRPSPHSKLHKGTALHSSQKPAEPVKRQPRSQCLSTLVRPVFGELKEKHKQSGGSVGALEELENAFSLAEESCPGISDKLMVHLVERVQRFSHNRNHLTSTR

[5] = target: T1, Protein kinase C iota type (Homo sapiens) (UniProt P41743); settings: at 10 µM
T1 sequence (whole entry): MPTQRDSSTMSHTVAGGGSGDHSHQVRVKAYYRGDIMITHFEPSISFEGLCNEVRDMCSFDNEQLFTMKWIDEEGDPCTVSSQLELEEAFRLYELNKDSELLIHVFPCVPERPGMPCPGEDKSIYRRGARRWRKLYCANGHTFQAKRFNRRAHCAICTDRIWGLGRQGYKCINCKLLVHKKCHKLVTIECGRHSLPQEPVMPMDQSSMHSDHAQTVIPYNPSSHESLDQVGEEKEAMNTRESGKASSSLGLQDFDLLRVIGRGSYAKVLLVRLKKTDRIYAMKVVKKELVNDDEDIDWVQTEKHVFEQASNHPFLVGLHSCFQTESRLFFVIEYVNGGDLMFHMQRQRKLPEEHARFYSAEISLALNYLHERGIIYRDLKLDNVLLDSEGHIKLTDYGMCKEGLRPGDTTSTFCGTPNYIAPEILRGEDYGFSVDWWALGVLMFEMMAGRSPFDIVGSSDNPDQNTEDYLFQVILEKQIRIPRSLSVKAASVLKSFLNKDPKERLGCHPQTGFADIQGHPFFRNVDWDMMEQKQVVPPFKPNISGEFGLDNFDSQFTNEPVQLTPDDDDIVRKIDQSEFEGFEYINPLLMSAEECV

SRSF protein kinase 1 = SRSF protein kinase 1 (Homo sapiens, UniProt Q96SB4); experiment: Selectivity interaction (KinomeScan (DiscoverX)) EUB0001049a SRPK1; settings: at 1 µM
SRSF protein kinase 1, sequence (Q96SB4 whole entry): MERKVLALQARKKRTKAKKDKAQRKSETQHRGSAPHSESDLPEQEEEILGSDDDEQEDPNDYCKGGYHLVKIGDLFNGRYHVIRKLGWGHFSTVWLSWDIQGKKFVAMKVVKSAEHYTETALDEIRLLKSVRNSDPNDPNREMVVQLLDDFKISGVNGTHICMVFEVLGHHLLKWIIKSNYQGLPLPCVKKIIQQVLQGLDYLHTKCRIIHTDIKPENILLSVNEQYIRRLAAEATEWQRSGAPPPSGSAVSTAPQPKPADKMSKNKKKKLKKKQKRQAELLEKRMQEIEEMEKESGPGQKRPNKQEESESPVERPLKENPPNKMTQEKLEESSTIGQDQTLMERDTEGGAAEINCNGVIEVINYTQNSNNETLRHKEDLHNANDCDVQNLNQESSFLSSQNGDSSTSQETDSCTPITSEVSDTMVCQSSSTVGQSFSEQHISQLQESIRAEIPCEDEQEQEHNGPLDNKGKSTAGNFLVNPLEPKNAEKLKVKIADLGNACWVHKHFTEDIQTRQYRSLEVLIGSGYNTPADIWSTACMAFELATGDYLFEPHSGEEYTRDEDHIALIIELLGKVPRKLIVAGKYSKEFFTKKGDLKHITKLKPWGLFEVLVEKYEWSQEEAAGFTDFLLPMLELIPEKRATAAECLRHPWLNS

[6] = target: Ribosomal protein S6 kinase alpha-6 (Homo sapiens, UniProt Q9UK32); experiment: Selectivity interaction (ProQinase) EUB0000171b RPS6KA6
Ribosomal protein S6 kinase alpha-6, sequence (Q9UK32 whole entry): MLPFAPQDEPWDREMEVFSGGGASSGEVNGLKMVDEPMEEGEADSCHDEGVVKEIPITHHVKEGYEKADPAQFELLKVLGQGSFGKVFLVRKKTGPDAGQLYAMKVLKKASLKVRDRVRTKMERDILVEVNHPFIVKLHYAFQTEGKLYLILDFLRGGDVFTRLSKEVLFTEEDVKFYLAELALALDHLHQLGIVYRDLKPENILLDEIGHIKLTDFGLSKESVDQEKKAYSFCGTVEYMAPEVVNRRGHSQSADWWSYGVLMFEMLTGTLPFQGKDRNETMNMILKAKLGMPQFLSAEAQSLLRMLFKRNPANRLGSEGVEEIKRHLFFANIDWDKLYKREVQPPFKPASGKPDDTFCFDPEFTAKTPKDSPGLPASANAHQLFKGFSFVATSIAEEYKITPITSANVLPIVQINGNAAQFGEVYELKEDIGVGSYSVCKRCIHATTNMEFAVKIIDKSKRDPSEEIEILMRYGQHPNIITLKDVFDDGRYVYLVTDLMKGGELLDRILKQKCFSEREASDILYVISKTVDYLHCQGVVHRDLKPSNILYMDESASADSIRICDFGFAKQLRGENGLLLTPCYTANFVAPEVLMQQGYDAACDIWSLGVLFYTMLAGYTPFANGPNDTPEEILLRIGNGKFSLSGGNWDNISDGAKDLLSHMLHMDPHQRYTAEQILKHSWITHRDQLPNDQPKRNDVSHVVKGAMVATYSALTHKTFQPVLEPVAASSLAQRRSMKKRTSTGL

Aurora kinase B = Aurora kinase B (Homo sapiens, UniProt Q96GD4); experiment: Selectivity interaction (Enyzmatic assay) EUB0000601a AURKB
Aurora kinase B, sequence (Q96GD4 whole entry): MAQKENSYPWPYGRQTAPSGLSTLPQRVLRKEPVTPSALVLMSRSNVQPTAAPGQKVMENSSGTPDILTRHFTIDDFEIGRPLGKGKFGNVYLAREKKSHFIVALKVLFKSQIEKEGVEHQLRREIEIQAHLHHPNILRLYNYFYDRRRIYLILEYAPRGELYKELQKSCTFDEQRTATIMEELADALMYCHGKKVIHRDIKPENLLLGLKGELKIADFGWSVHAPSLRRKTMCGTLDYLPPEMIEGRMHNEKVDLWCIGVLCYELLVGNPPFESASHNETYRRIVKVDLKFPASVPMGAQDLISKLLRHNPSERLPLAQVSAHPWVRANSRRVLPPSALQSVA

[7] = target: Cyclin-dependent kinase 2 (Homo sapiens, UniProt P24941); experiment: Selectivity interaction (Kinase panel (DSF assay)) EUB0001558a CDK2
[8] = target: Activin receptor type-2A (Homo sapiens) (UniProt P27037); experiment: Selectivity interaction (KinomeScan (DiscoverX)) EUB0000618a ACVR2A; settings: at 10 µM
Activin receptor type-2A (Homo sapiens), sequence (P27037 whole entry): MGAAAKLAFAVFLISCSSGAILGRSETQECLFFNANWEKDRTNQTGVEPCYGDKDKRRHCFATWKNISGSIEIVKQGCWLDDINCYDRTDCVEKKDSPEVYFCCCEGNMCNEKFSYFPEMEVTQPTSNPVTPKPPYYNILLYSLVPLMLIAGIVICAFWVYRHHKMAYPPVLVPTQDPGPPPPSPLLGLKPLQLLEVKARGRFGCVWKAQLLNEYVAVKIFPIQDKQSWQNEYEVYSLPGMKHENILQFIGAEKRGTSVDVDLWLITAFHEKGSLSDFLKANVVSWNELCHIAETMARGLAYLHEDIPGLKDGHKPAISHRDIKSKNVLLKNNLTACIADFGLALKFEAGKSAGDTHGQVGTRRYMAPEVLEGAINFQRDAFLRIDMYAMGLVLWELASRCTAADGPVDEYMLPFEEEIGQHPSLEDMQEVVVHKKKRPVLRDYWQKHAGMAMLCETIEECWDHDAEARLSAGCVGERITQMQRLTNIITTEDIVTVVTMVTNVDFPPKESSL

[9] = target: Serine/threonine-protein kinase PAK 1 (Homo sapiens) (UniProt Q13153); experiment: Selectivity interaction (Kinase panel (Invitrogen)) EUB0000639a PAK1; settings: at 200 nM
Serine/threonine-protein kinase PAK 1 (Homo sapiens), sequence (Q13153 whole entry): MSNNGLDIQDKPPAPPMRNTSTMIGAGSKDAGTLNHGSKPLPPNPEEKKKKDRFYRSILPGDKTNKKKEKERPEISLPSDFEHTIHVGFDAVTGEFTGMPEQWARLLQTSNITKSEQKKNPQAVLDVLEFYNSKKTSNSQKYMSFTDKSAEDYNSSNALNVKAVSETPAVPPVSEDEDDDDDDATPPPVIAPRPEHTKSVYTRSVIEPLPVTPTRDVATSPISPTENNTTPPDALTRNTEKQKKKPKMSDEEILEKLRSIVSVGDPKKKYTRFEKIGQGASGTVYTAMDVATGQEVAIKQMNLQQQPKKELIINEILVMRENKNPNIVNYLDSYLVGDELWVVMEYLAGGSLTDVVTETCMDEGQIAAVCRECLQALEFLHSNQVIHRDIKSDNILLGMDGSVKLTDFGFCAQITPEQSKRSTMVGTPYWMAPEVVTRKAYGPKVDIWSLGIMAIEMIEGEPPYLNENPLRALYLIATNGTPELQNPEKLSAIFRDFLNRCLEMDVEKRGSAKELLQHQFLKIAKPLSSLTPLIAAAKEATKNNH

[10] = target: T2, Serine/threonine-protein kinase ULK1 (Homo sapiens) (UniProt O75385); experiment: Selectivity interaction (ActivX KiNativ screen (kinase selectivity in THP-1 cell lysates)) EUB0000639a ULK1; type: subcellular; settings: lysate, at 0.2 µM
T2 sequence (whole entry): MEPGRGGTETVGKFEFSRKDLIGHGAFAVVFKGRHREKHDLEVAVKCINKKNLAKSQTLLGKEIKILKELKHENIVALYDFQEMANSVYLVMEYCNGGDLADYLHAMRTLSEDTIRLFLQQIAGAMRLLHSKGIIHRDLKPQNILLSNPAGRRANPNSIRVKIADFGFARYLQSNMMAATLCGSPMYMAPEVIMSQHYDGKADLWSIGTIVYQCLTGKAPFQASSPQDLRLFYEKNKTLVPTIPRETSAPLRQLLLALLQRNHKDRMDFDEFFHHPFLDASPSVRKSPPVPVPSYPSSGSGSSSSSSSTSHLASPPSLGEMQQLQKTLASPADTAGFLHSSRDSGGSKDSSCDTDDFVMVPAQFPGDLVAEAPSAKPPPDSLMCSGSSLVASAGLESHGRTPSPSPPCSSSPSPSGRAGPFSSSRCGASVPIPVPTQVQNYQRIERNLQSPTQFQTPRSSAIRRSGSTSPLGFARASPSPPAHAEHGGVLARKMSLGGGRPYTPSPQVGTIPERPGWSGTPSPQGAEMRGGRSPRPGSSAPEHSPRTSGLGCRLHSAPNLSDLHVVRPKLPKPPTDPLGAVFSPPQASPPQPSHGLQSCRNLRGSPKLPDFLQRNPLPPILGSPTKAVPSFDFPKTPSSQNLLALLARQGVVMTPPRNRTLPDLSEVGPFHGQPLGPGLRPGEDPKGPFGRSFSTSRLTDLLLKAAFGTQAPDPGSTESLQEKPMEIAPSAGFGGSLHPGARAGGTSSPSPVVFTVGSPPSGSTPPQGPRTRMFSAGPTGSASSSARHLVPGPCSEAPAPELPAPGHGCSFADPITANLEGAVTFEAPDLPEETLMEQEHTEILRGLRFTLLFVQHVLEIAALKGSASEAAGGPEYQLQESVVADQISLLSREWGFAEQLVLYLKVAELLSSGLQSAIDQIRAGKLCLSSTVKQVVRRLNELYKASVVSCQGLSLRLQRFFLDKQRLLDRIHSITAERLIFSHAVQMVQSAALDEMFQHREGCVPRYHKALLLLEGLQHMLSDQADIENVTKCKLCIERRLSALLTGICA

[11] = target: T3, Interleukin-1 receptor-associated kinase 4 (Homo sapiens) (UniProt Q9NWZ3); experiment: Selectivity interaction (KinomeScan (DiscoverX)) EUB0000655a IRAK4; settings: at 10 µM
T3 sequence (whole entry): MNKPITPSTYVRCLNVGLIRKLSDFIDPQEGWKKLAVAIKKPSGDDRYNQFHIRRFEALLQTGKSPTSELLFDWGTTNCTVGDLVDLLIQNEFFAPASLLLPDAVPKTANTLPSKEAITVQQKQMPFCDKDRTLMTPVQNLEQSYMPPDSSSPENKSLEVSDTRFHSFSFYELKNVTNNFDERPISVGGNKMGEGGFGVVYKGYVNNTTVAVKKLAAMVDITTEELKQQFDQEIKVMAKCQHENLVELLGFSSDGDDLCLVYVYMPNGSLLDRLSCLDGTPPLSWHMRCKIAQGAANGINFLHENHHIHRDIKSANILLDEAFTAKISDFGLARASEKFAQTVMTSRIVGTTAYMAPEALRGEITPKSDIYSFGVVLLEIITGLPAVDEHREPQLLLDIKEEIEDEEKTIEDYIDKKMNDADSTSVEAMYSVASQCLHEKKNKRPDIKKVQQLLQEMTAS

[12] = target: Activin receptor type-1-like (Homo sapiens) (UniProt P37023); experiment: Selectivity interaction (KinomeScan (DiscoverX)) EUB0000655a ACVRL1; settings: at 10 µM
Activin receptor type-1-like (Homo sapiens), sequence (P37023 whole entry): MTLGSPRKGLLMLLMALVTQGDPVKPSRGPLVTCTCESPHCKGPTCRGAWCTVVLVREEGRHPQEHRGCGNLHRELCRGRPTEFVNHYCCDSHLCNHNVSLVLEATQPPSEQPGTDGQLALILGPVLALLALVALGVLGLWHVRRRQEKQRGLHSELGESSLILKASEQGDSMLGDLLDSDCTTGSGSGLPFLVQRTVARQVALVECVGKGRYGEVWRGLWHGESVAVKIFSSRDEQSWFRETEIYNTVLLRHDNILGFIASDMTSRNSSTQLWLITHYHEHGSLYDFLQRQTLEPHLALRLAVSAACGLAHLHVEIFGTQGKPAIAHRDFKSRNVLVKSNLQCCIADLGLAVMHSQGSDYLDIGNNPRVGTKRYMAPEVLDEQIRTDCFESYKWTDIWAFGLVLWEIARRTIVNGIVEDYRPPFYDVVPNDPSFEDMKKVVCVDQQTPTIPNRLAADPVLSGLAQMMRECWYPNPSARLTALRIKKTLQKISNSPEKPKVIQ

Serine/threonine-protein kinase PAK 4, sequence (O96013 whole entry, looked up): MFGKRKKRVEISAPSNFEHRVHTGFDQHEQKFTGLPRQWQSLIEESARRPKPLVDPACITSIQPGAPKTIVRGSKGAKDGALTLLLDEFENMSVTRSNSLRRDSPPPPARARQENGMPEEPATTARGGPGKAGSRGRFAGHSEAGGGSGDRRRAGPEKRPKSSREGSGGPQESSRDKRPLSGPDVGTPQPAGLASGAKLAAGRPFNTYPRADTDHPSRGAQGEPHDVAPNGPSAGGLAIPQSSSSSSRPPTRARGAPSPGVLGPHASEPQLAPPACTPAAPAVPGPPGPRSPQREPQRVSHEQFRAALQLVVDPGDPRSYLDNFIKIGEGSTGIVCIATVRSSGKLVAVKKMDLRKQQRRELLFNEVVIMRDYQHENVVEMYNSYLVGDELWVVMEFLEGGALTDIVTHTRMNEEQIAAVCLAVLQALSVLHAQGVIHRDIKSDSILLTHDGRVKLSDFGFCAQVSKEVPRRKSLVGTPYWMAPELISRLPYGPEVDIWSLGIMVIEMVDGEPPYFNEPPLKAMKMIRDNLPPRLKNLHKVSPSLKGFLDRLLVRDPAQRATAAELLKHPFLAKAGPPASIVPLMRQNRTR

CN(C(=O)c1cnn2cccnc12)c1cc2c(cc1N1CCOCC1)C(=O)N(C[C@@H](F)C(C)(C)O)C2
dTM [1]: 0.4 K

Cc1cc(F)c(C(=O)Nc2cccc(-c3nncn3C(C)C)n2)cc1-n1cnc(C2CC2)c1
% of control [2]: 91%

Nc1cnc(N2CCc3cc(S(=O)(=O)Nc4c(F)cc(Cl)cc4F)cc(N4CCCC4=O)c32)nc1 [TP-020n]
% of inhibition [3]: -14.4%

O=C(NOC[C@H](O)CO)c1ccc(F)c(F)c1Nc1ccc(I)cc1F
% of control [4]: 91%

Cc1cc([C@@H](C)Nc2ccccc2C(=O)O)c2nc(N3CCOCC3)cc(=O)n2c1 [AZD-6482]
% of control [5]: 100%

COc1cc(Nc2nc(C)cc(-c3cnn4nc(OC)ccc34)n2)cc(C(F)(F)F)c1
% of control (SRSF protein kinase 1): 96%

C=CC(=O)Nc1cccc(C(=O)Nc2ccc(Nc3cc(-c4[nH]c(SC)nc4C)ccn3)cc2)c1
% of control ([6]; at 1 µM): 88% | % of control ([6]; at 5 µM): 68%

CCc1cc(Nc2nccc(-c3c(-c4ccc(OC)c(C(=O)Nc5c(F)cccc5F)c4)nc4ccccn34)n2)c(OC)cc1N1CCC(N2CCN(S(C)(=O)=O)CC2)CC1
IC50 (Aurora kinase B): > 4 µM

CC(C)(O)[C@H](F)CN1Cc2cc(NC(=O)c3cnn4cccnc34)c(N3CCOCC3)cc2C1=O
dTM [7]: 0.1 K

O[C@H]1CC[C@H](Nc2ncc3nc(Nc4c(F)cc(F)cc4F)n([C@H]4CCOC4)c3n2)CC1
% of control [8]: 92%

CC[C@@H]1[C@H](F)C(=O)N[C@@H]1COc1nccc2cc(C(N)=O)c(OC)cc12 [ZIMLOVISERTIB]
% of inhibition [9]: -9.19% | % of inhibition [10]: -29.3%

CN(C)CCOc1ccc(-c2nc(-c3ccncc3)c(-c3ccc4c(c3)CC/C4=N\O)[nH]2)cc1
% of control [11]: 91% | % of control [12]: 67%
